Results taken from PubChem BioAssay AID248 (DTP/NCI, 2004).
“And” between values parts separate entries of the source, which are not always exact repeats. Identical values can stand only once. Toxic doses and inconclusive results are not listed. Cut-off read from the data, not from the text of the source: active = T/C of 150% or more; inactive = T/C below 125%.

System: L1210 leukemia ip in BDF1 mice, survival T/C
Test: NCI In Vivo Anticancer Drug Screen. Data for tumor model L1210 Leukemia (intraperitoneal) in B6D2F1 (BDF1) mice
Conditions: endpoint: mean survival time, higher = longer survival
Procedure, shortened: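 Tumor was transplanted into mice, which were then dosed with test compound or vehicle alone. Survival was recorded for each group, and the treated figure was expressed relative to the control figure.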

[1] = dose: 100.0 mg/kg/injection, schedule: Q01DX001 (ip), vehicle: carboxymethylcellulose (CMC)
[2] = dose: 200.0 mg/kg/injection, schedule: Q01DX001 (ip), vehicle: carboxymethylcellulose (CMC)
[3] = dose: 400.0 mg/kg/injection, schedule: Q01DX001 (ip), vehicle: carboxymethylcellulose (CMC)
[4] = dose: 50.0 mg/kg/injection, schedule: Q04DX003 (ip), vehicle: Klucel (hydroxypropylcellulose) (HPC)
[5] = dose: 100.0 mg/kg/injection, schedule: Q04DX003 (ip), vehicle: Klucel (hydroxypropylcellulose) (HPC)

Measured: T/C

CNC(C(=O)O)c1ccccc1 (centres undefined)
inactive: dose: 100.0 mg/kg/injection, schedule: Q01DX001 (ip), vehicle: steriod suspending solution 89 % of control | dose: 200.0 mg/kg/injection, schedule: Q01DX001 (ip), vehicle: steriod suspending solution 97 % of control | dose: 400.0 mg/kg/injection, schedule: Q01DX001 (ip), vehicle: steriod suspending solution 87 % of control

CN(C)c1ccc(N=Nc2ccccc2)c2cccnc12
inactive: dose: 6.25 mg/kg/injection, schedule: Q01DX009 (ip), vehicle: DMSO 103 % of control | dose: 12.5 mg/kg/injection, schedule: Q01DX009 (ip), vehicle: DMSO 94 % of control | dose: 25.0 mg/kg/injection, schedule: Q01DX009 (ip), vehicle: DMSO 96 % of control | dose: 50.0 mg/kg/injection, schedule: Q01DX009 (ip), vehicle: DMSO 92 % of control | dose: 100.0 mg/kg/injection, schedule: Q01DX009 (ip), vehicle: DMSO 96 % of control | dose: 100.0 mg/kg/injection, schedule: Q04DX003 (ip), vehicle: DMSO 94 % of control | dose: 200.0 mg/kg/injection, schedule: Q04DX003 (ip), vehicle: DMSO 88 % of control | dose: 400.0 mg/kg/injection, schedule: Q04DX003 (ip), vehicle: DMSO 90 % of control

C/C(=N/OC(=O)N(C)C)c1cccs1
inactive: dose: 5.0 mg/kg/injection, schedule: Q01DX001 (ip), vehicle: other 103 % of control | dose: 10.0 mg/kg/injection, schedule: Q01DX001 (ip), vehicle: other 94 % of control | dose: 20.0 mg/kg/injection, schedule: Q01DX001 (ip), vehicle: other 97 % of control | dose: 40.0 mg/kg/injection, schedule: Q01DX001 (ip), vehicle: other 92 % of control

CCCCCCCCCCCCSCCSCCCCCCCCCCCC
inactive: [1] 93 % of control | [2] 86 % of control | [3] 102 % of control

CSc1ccc2[nH]c3c(c2c1)CCNC3
inactive: dose: 100.0 mg/kg/injection, schedule: Q04DX003 (ip), vehicle: saline with Tween-80 108 % of control | dose: 200.0 mg/kg/injection, schedule: Q04DX003 (ip), vehicle: saline with Tween-80 105 % of control | dose: 400.0 mg/kg/injection, schedule: Q04DX003 (ip), vehicle: saline with Tween-80 98 % of control

CCSC(SCC)C(SCC)C(OC(=O)c1ccccc1)C(OC(=O)c1ccccc1)C(COC(=O)c1ccccc1)OC(=O)c1ccccc1 (centres undefined)
inactive: [1] 114 % of control | [2] 112 % of control | [3] 93 % of control

CN(C)C(=S)Oc1ccccn1
inactive: dose: 25.0 mg/kg/injection, schedule: Q04DX003 (ip), vehicle: Klucel (hydroxypropylcellulose) (HPC) 106 % of control | [4] 104 % of control | [5] 102 % of control and 105 % of control

O=C1CC(C(Cl)(Cl)Cl)O1 (centres undefined)
inactive: dose: 100.0 mg/kg/injection, schedule: Q04DX002 (ip), vehicle: Klucel (hydroxypropylcellulose) (HPC) 89 % of control | dose: 200.0 mg/kg/injection, schedule: Q04DX002 (ip), vehicle: Klucel (hydroxypropylcellulose) (HPC) 92 % of control | dose: 400.0 mg/kg/injection, schedule: Q04DX002 (ip), vehicle: Klucel (hydroxypropylcellulose) (HPC) 106 % of control

NCCCN1CCCC1=O
inactive: dose: 100.0 mg/kg/injection, schedule: Q01DX001 (ip), vehicle: saline 98 % of control | dose: 200.0 mg/kg/injection, schedule: Q01DX001 (ip), vehicle: saline 101 % of control | dose: 400.0 mg/kg/injection, schedule: Q01DX001 (ip), vehicle: saline 98 % of control

CC(C)/C=N/N=C(N)N
inactive: dose: 120.0 mg/kg/injection, schedule: Q01DX Z (oral), vehicle: saline 113 % of control | dose: 240.0 mg/kg/injection, schedule: Q01DX Z (oral), vehicle: saline 104 % of control

O=CN/N=C/c1ccc2c(c1)CCC2
inactive: dose: 100.0 mg/kg/injection, schedule: Q01DX009 (ip), vehicle: saline with Tween-80 97 % of control | dose: 200.0 mg/kg/injection, schedule: Q01DX009 (ip), vehicle: saline with Tween-80 102 % of control | dose: 400.0 mg/kg/injection, schedule: Q01DX009 (ip), vehicle: saline with Tween-80 98 % of control

CCOC(=O)N1NC(=O)CC1(C)C
inactive: dose: 100.0 mg/kg/injection, schedule: Q04DX003 (ip), vehicle: saline 105 % of control | dose: 200.0 mg/kg/injection, schedule: Q04DX003 (ip), vehicle: saline 105 % of control | dose: 400.0 mg/kg/injection, schedule: Q04DX003 (ip), vehicle: saline 102 % of control

CCn1c(Cl)c(C(=O)O)c2ccccc21
inactive: [4] 97 % of control | [5] 97 % of control | dose: 200.0 mg/kg/injection, schedule: Q04DX003 (ip), vehicle: Klucel (hydroxypropylcellulose) (HPC) 97 % of control
